The text below walks through data of patent US6808936B1, “Methods and compositions for use in the diagnosis and treatment of chronic immune disease” (R.E.D. Laboratories, N.V., priority 2000, dated 2004).

Assay in all cases: Caspase activity in extracts of U937 cell line induced to apoptosis with camptothecin
Holding throughout (format): cell-based, human

The test system of one test is caspase 3. On the procedure:
(§1) Caspase levels in PBMC extracts were measured using a commercially available kit (BioSource International) based on a calorimetric assay. Briefly, PBMC extracts were diluted to a final concentration of 1 microgram of protein per 50 microliters of diluent (provided with the kit). This sample (1 microgram) was then added to 55 microliters of assay buffer containing a substrate specific for the particular caspase to be measured (if caspase activity is present, the substrate is cleaved, liberating color). Cell extracts to be used as positive and negative controls for caspase activity levels were prepared using the method of […] et al. (1999), Oncogene 14:1007-1012). Briefly, the human monocytic leukemia cell line U937 was induced to begin apoptosis by treatment with camptothecin at a concentration of 10 micrograms per mL of 2×10^6 cells. Uninduced cells were used as the negative control. Also included as a negative control were normal human monocytes, elutriated and frozen as live cells. All cell extracts and protein determinations were made as described above. The reaction mixture (1 microgram protein sample+caspase substrate) was incubated at 37 degrees C. for 20-24 hours. The resultant color was measured using a spectrophotometer at a wavelength of 405 nm. Background absorbance (i.e., from a reagent blank without protein) was subtracted from all sample values. All assays were performed in triplicate, […]

The test system of a further test is caspase 9. Particulars: U937 Cell Line Induced (G3), camptothecin 10 micrograms per mL; n 4; uninduced 45 ± 6. As for the experimental part:
as §1

A further test relates to caspase 2. Particulars: U937 Cell Line Induced (G3), camptothecin 10 micrograms per mL; n 4; uninduced 50 ± 32. On the procedure: as §1
The subject of a further test is caspase 8. Particulars: U937 Cell Line Induced (G3), camptothecin 10 micrograms per mL; n 4; uninduced 91 ± 11. As for the experimental part:
as §1

A further test deals with caspase 6. Particulars: U937 Cell Line Induced (G3), camptothecin 10 micrograms per mL; n 4; uninduced 162 ± 20. On the procedure:
as §1

The structures appear in SMILES notation.

With `CC[C@@]1(O)C(=O)OCc2c1cc1n(c2=O)Cc2cc3ccccc3nc2-1` [camptothecin], in the test on caspase 3 (Table 2: U937 Cell Line Induced (G3), camptothecin, mean ± s.d. of triplicates, uninduced 82 ± 9), the “Caspase 3 Activity” value is 336 ± 6 mAU. In the test on caspase 3 (U937 Cell Line Induced (G3), camptothecin 10 micrograms per mL, n 4, uninduced 73 ± 26), this compound returned a C3 caspase activity of 304 ± 50. In addition, in the test with caspase 9, the C9 caspase activity amounted to 90 ± 29. In the test on caspase 2, the C2 caspase activity is reported as 251 ± 39. This compound also displayed a C8 caspase activity in the test on caspase 8 of 207 ± 52. The compound further had a C6 caspase activity in the test on caspase 6 of 277 ± 57.
